Test results from patent US6355799B1, “Substituted benzene compounds, process for their preparation, and herbicidal and defoliant compositions containing them” (ISK Americas Incorporated, priority 1997, dated 2002).

How the values were obtained:
Type in all cases: in vivo
[1] = test system: upland rice (Oryza sp., var. Tebonnet, RICE); assay: Post-emerge test, crop safety; details: post-emerge, 14 days after application, rating scale 0-100
How it was run: (§1)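 Applied at 15–1000 g ai/ha from acetone in 187 l/ha spray volume. Post-emergence applications included 0.25% v/v non-ionic surfactant and reached plants sown 8–21 days before. Pre-emergence applications were incorporated by surface watering. Efficacy or crop damage was rated on a 0–100 scale after 14 days.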

[2] = test system: field corn (Zea mays L., var. Dekalb 535, CORN); assay: Post-emerge test, crop safety; details: post-emerge, 14 days after application, rating scale 0-100
How it was run: as §1

[3] = test system: sicklepod (Cassia obtusifolia, CASOB); assay: Post-emerge test, greenhouse herbicide activity screening; details: post-emerge, 14 days after application, rating scale 0-100
How it was run: (§2)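 Herbicidal damage is scored 0 (none) to 100 (complete plant death) two weeks after a simulated field spray. Rates span 15–1000 g ai/ha, delivered in acetone at 187 l/ha. For post-emergence treatments, plants have 2–3 leaves and the spray carries 0.25% v/v non-ionic surfactant.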

[4] = test system: velvetleaf (Abutilon theophrasti, ABUTH); assay: as above; details: post-emerge, 14 days after application, rating scale 0-100
How it was run: as §2

[5] = test system: barnyardgrass (Echinochloa crus-galli, ECHCG); assay: as above; details: post-emerge, 14 days after application, rating scale 0-100
How it was run: as §2

[6] = test system: redroot pigweed (Amaranthus retroflexus, AMARE); assay: as above; details: post-emerge, 14 days after application
How it was run: as §2

[7] = test system: green foxtail (Setaria viridis, SETVI); assay: as above; details: post-emerge, 14 days after application, rating scale 0-100
How it was run: as §2

[8] = test system: ivyleaf morningglory (Ipomoea hederacea, IPOHE); assay: as above; details: post-emerge, 14 days after application, rating scale 0-100
How it was run: as §2

[9] = test system: large crabgrass (Digitaria sanguinalis, DIGSA); assay: as above; details: post-emerge, 14 days after application, rating scale 0-100
How it was run: as §2

[10] = test system: upland rice (Oryza sp., var. Tebonnet, RICE); assay: Pre-emerge test, crop safety; details: pre-emerge, 14 days after application, rating scale 0-100
How it was run: as §2

[11] = test system: field corn (Zea mays L., var. Dekalb 535, CORN); assay: Pre-emerge test, crop safety; details: pre-emerge, 14 days after application, rating scale 0-100
How it was run: as §2

[12] = test system: sicklepod (Cassia obtusifolia, CASOB); assay: Pre-emerge test, greenhouse herbicide activity screening; details: pre-emerge, 14 days after application, rating scale 0-100
How it was run: as §1

[13] = test system: velvetleaf (Abutilon theophrasti, ABUTH); assay: as above; details: pre-emerge, 14 days after application, rating scale 0-100
How it was run: as §1

[14] = test system: lambsquarters (Chenopodium album, CHEAL); assay: as above; details: pre-emerge, 14 days after application, rating scale 0-100
How it was run: as §1

[15] = test system: johnsongrass (Sorghum halepense, SORHA); assay: as above; details: pre-emerge, 14 days after application, rating scale 0-100
How it was run: as §1

[16] = test system: barnyardgrass (Echinochloa crus-galli, ECHCG); assay: as above; details: pre-emerge, 14 days after application, rating scale 0-100
How it was run: as §1

[17] = test system: green foxtail (Setaria viridis, SETVI); assay: as above; details: pre-emerge, 14 days after application, rating scale 0-100
How it was run: as §1

[18] = test system: ivyleaf morningglory (Ipomoea hederacea, IPOHE); assay: as above; details: pre-emerge, 14 days after application, rating scale 0-100
How it was run: as §1

[19] = test system: large crabgrass (Digitaria sanguinalis, DIGSA); assay: as above; details: pre-emerge, 14 days after application, rating scale 0-100
How it was run: as §1

[20] = test system: redroot pigweed (Amaranthus retroflexus, AMARE); assay: as above; details: pre-emerge, 14 days after application, rating scale 0-100
How it was run: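 Rating: 0–100 visual injury, 14 DAA. Application: acetone, 187 l/ha, 15–1000 g ai/ha, flat-fan track sprayer with nozzle 40–45 cm above soil or canopy. Post-emerge runs used 0.25% v/v surfactant on 2–3 leaf plants.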

[21] = 63 g ai/ha, rating scale 0-100 (0 no damage, 100 complete death)
[22] = 250 g ai/ha, rating scale 0-100

Compound	Post-emerge Herbicidal Activity RICE (crop damage rating) ([1]; 63 g ai/ha)	Post-emerge Herbicidal Activity RICE (crop damage rating) ([1]; 250 g ai/ha)	Post-emerge Herbicidal Activity CORN (crop damage rating) ([2]; 63 g ai/ha)	Post-emerge Herbicidal Activity CORN (crop damage rating) ([2]; 250 g ai/ha)	Post-emerge Herbicidal Activity CASOB (phytotoxicity rating) ([3]; 63 g ai/ha)	Post-emerge Herbicidal Activity CASOB (phytotoxicity rating) ([3]; 250 g ai/ha)	Post-emerge Herbicidal Activity ABUTH (phytotoxicity rating) ([4]; 63 g ai/ha)	Post-emerge Herbicidal Activity ABUTH (phytotoxicity rating) ([4]; 250 g ai/ha)	Post-emerge Herbicidal Activity ECHCG (phytotoxicity rating) ([5]; 63 g ai/ha)	Post-emerge Herbicidal Activity ECHCG (phytotoxicity rating) ([5]; 250 g ai/ha)	Post-emerge Herbicidal Activity AMARE (phytotoxicity rating) [6, 21]	Post-emerge Herbicidal Activity AMARE (phytotoxicity rating) [6, 22]	Post-emerge Herbicidal Activity SETVI (phytotoxicity rating) ([7]; 63 g ai/ha)	Post-emerge Herbicidal Activity SETVI (phytotoxicity rating) ([7]; 250 g ai/ha)	Post-emerge Herbicidal Activity IPOHE (phytotoxicity rating) ([8]; 63 g ai/ha)	Post-emerge Herbicidal Activity IPOHE (phytotoxicity rating) ([8]; 250 g ai/ha)	Post-emerge Herbicidal Activity DIGSA (phytotoxicity rating) ([9]; 63 g ai/ha)	Post-emerge Herbicidal Activity DIGSA (phytotoxicity rating) ([9]; 250 g ai/ha)	phytotoxicity rating RICE ([10]; 63 g ai/ha)	phytotoxicity rating RICE ([10]; 250 g ai/ha)	also measured
CCOC(=O)NNc1c(OC)c(Cl)cc(F)c1-n1c(=O)cc(C(F)(F)F)n(C)c1=O [15-6]	60	95	25	80	30	70	100	100	20	95	50	85	30	75	50	100	0	90	98	100	phytotoxicity rating CORN ([11]; 63 g ai/ha): 95; phytotoxicity rating CORN ([11]; 250 g ai/ha): 100; phytotoxicity rating CASOB ([12]; 63 g ai/ha): 90; phytotoxicity rating CASOB ([12]; 250 g ai/ha): 100; phytotoxicity rating ABUTH ([13]; 63 g ai/ha): 100; phytotoxicity rating ABUTH ([13]; 250 g ai/ha): 100; phytotoxicity rating CHEAL ([14]; 63 g ai/ha): 100; phytotoxicity rating CHEAL ([14]; 250 g ai/ha): 100; phytotoxicity rating SORHA ([15]; 63 g ai/ha): 100; phytotoxicity rating SORHA ([15]; 250 g ai/ha): 100; phytotoxicity rating ECHCG ([16]; 63 g ai/ha): 99; phytotoxicity rating ECHCG ([16]; 250 g ai/ha): 100; phytotoxicity rating SETVI ([17]; 63 g ai/ha): 99; phytotoxicity rating SETVI ([17]; 250 g ai/ha): 100; phytotoxicity rating IPOHE ([18]; 63 g ai/ha): 100; phytotoxicity rating IPOHE ([18]; 250 g ai/ha): 100; phytotoxicity rating DIGSA ([19]; 63 g ai/ha): 100; phytotoxicity rating DIGSA ([19]; 250 g ai/ha): 100; phytotoxicity rating AMARE ([20]; 63 g ai/ha): 100; phytotoxicity rating AMARE ([20]; 250 g ai/ha): 100
CCOC(=O)N(C)C(=O)NNc1c(OC)c(Cl)cc(F)c1-n1c(=O)cc(C(F)(F)F)n(C)c1=O [15-9]	50	90	30	70	10	60	80	100	0	90	10	95	0	80	100	85	0	80	95	100	phytotoxicity rating CORN ([11]; 63 g ai/ha): 85; phytotoxicity rating CORN ([11]; 250 g ai/ha): 98; phytotoxicity rating CASOB ([12]; 63 g ai/ha): 90; phytotoxicity rating CASOB ([12]; 250 g ai/ha): 100; phytotoxicity rating ABUTH ([13]; 63 g ai/ha): 100; phytotoxicity rating ABUTH ([13]; 250 g ai/ha): 100; phytotoxicity rating CHEAL ([14]; 63 g ai/ha): 100; phytotoxicity rating CHEAL ([14]; 250 g ai/ha): 100; phytotoxicity rating SORHA ([15]; 63 g ai/ha): 100; phytotoxicity rating SORHA ([15]; 250 g ai/ha): 100; phytotoxicity rating ECHCG ([16]; 63 g ai/ha): 99; phytotoxicity rating ECHCG ([16]; 250 g ai/ha): 100; phytotoxicity rating SETVI ([17]; 63 g ai/ha): 100; phytotoxicity rating SETVI ([17]; 250 g ai/ha): 100; phytotoxicity rating IPOHE ([18]; 63 g ai/ha): 99; phytotoxicity rating IPOHE ([18]; 250 g ai/ha): 100; phytotoxicity rating DIGSA ([19]; 63 g ai/ha): 90; phytotoxicity rating DIGSA ([19]; 250 g ai/ha): 100; phytotoxicity rating AMARE ([20]; 63 g ai/ha): 100; phytotoxicity rating AMARE ([20]; 250 g ai/ha): 100
